Test results: patent US10047036B2, “Method for the synthesis of hydroxy-triglycerides and uses thereof for the prevention and treatment of diseases” (UNIVERSITAT DE LES ILLES BALEARS, priority 2014, dated 2018)
pIC50: −log10 of the molar value.

Key:
[1] = test system: triglycerides in plasma; experiment: plasma triglycerides in SHR rats; assay type: in vivo; conditions: 6 days, 400 mg/kg, p.o.
From the text: Metabolic and cardiovascular pathologies are closely related. The overfeeding which characterises our society not only gives rise to problems of obesity and excess weight. It is also linked to the appearance of diabetes, dyslipidaemia, hypertension, strokes, arteriosclerosis, ictus, etc. All of these pathologies increase the risk of premature death and can even cause death. In this sense, certain natural oils show a certain efficacy against this type of pathologies, but their power is limited. In contrast, the molecules of the invention have an important effect against the development of this type of pathologies. To be able to study the effects of the compounds of the invention for the prevention and treatment of metabolic and cardiovascular pathologies, hypertensive rats were used (SHR strain, spontaneously hypertensive rats). These rats present obesity, high blood pressure, dyslipidaemia (hypercholesterolemia and hypertriglyceridemia), diabetes, metabolic syndrome and other related health problems. […] [table]

[2] = test system: HeLa (cervix); experiment: growth inhibition of human tumour cells, 72 h incubation; assay type: cell-based; conditions: 72 hours of incubation
Procedure: (§1) On the one hand, human cells of different types of cancer were used. The cells were incubated at 37° C. and 5% of CO2 in air, in culture medium RPMI1640 or DMEM with bovine foetal serum (10%) and other supplements and in the presence or absence of the triglycerides of the present invention at different concentrations during 72 hours. It was possible to observe that the hydroxy-triglycerides of the invention have a high efficacy against the growth of human tumour cells, but not against the growth of normal non-tumour cells (human fibroblasts, MRC5).

[3] = test system: MDA-MB231 (breast); experiment: as above; assay type: cell-based; conditions: 72 hours of incubation
Procedure: as §1

[4] = test system: Jurkat (lymphoblastic leukaemia); experiment: as above; assay type: cell-based; conditions: 72 hours of incubation
Procedure: as §1

[5] = test system: NCI1975D (lung); experiment: as above; assay type: cell-based; conditions: 72 hours of incubation
Procedure: as §1

[6] = test system: SH-SY5Y (neuroblastoma); experiment: as above; assay type: cell-based; conditions: 72 hours of incubation
Procedure: as §1

[7] = test system: MIA-PaCa-2 (pancreas); experiment: as above; assay type: cell-based; conditions: 72 hours of incubation
Procedure: as §1

[8] = test system: A549 (lung); experiment: as above; assay type: cell-based; conditions: 72 hours of incubation
Procedure: as §1

[9] = test system: SF767 (glioma); experiment: as above; assay type: cell-based; conditions: 72 hours of incubation
Procedure: as §1

[10] = test system: HepG2 (liver carcinoma); experiment: as above; assay type: cell-based; conditions: 72 hours of incubation
Procedure: as §1

[11] = test system: HT-29 (colon); experiment: as above; assay type: cell-based; conditions: 72 hours of incubation
Procedure: as §1

[12] = test system: U87M (glioma); experiment: as above; assay type: cell-based; conditions: 72 hours of incubation
Procedure: as §1

[13] = test system: PC3 (prostate); experiment: as above; assay type: cell-based; conditions: 72 hours of incubation
Procedure: as §1

[14] = test system: BXPC3 (pancreas); experiment: as above; assay type: cell-based; conditions: 72 hours of incubation
Procedure: as §1

[15] = molecular target: T1, Glycogen Branching Enzyme 1 (GBE1) variant Y329S (Homo sapiens, UniProt Q04446, Y329S); experiment: activity of purified enzyme GBE1 Y329S in the presence of PC membranes; assay type: biochemical; conditions: PC membranes with TGM 20 mol %; non-mutated enzyme = 100% (0.76 nmol/min · ng protein)
T1 sequence (Q04446 1-702 Y329S): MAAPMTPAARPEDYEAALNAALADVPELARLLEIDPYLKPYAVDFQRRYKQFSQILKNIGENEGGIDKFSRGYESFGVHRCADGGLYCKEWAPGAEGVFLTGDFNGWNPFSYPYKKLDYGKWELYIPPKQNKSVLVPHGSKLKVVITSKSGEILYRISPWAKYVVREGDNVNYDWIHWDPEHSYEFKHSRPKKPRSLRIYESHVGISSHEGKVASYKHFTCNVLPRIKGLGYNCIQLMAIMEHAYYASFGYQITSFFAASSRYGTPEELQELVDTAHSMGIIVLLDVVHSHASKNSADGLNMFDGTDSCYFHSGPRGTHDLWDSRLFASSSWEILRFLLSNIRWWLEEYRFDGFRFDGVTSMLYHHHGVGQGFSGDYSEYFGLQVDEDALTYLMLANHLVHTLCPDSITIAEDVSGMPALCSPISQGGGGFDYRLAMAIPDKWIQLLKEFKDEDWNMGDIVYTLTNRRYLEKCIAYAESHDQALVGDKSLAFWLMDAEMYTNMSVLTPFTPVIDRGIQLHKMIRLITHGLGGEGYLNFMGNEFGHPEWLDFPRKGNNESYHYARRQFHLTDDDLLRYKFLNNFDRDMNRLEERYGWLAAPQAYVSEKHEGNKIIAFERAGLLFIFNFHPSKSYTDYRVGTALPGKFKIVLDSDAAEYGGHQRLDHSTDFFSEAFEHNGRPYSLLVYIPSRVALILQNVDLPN
From the text: It has been possible to observe that the molecules of the present invention are capable of regulating the activity of the Glycogen Branching Enzyme 1 (GBE1) and its joining to membranes (Table 9). Alterations in this enzyme give rise to a neurodegenerative process known as APBD (Kakhlon et al., 2013). It has been described that a modification of tyrosine in position 329 of this enzyme (Y329S) causes a reduction in the activity of GBE1. This gives rise to a lower branching of glycogen, which precipitates forming […] which interfere with cell activity (Kakhlon et al., 2013). This gives rise to problems in the function of certain organs, to motor problems and, in some cases, to cognitive decline. We have been able to verify that the hydroxy-triglycerides of the present invention are capable of regulating the joining of native GBE1 (wild type, wt) and with the variant Y329S to membranes and to increase the activity of the form Y329S, which is very low in normal conditions (Table 9). For this reason, the molecules of the present invention are effective for the prevention and treatment of the polyglucosan bodies disease, APBD.

[16] = test system: HL-60 (myeloblastic leukaemia); experiment: growth inhibition of human tumour cells, 72 h incubation; assay type: cell-based; conditions: 72 hours of incubation
Procedure: as §1

SMILES | TG, levels of triglycerides in plasma [1] [mg/dL] | Activity Y329S [15] [%] | pIC50 [2] | pIC50 [16] | pIC50 [3] | pIC50 [4] | pIC50 [5] | pIC50 [6] | pIC50 [7] | pIC50 [8] | pIC50 [9] | pIC50 [10] | pIC50 [11] | pIC50 [12] | pIC50 [13] | pIC50 [14] | other results
CCCCCC(O)C(=O)OCC(COC(=O)C(O)CCCCC)OC(=O)C(O)CCCCC (stereo not drawn) [TGM0, 1,2,3-tri(2′-hydroxyheptanoyl)glycerol] | 69.7 ± 7 | 20 ± 2 | – | – | – | – | – | – | – | – | – | – | – | – | – | – | pIC50 ([2]; Homo sapiens, HeLa): 3.70; pIC50 ([3]; Homo sapiens, MDA-MB-231): 3.60; pIC50 ([4]; Homo sapiens, Jurkat): 3.75; pIC50 ([5]; Homo sapiens): 3.49; pIC50 ([6]; Homo sapiens, SH-SY5Y): 3.60; pIC50 ([7]; Homo sapiens, MIA PaCa-2): 3.55; pIC50 ([8]; Homo sapiens, A549): 3.92; pIC50 ([9]; Homo sapiens, SF767): 3.56; pIC50 ([10]; Homo sapiens, HepG2): 3.49; pIC50 ([11]; Homo sapiens, HT-29): 3.58; pIC50 ([12]; Homo sapiens): 3.47; pIC50 ([13]; Homo sapiens): 3.64; pIC50 ([14]; Homo sapiens, BXPC-3): 3.53
CCCCCCCCC=CCCCCCCC(O)C(=O)OCC(COC(=O)C(O)CCCCCCC=CCCCCCCCC)OC(=O)C(O)CCCCCCC=CCCCCCCCC (stereo not drawn) [TGM1, 1,2,3-tri(2′-hydroxy-octadec-9′-enoyl)glycerol] | 51.6 ± 4 | 7 ± 1 | 3.74 | 3.61 | 3.89 | 4.49 | 3.53 | 3.89 | 3.84 | 4.54 | 3.55 | 4.06 | 4.03 | 3.59 | 3.62 | 3.68 | –
CCCCCC=CCC=CCCCCCCC(O)C(=O)OCC(COC(=O)C(O)CCCCCCC=CCC=CCCCCC)OC(=O)C(O)CCCCCCC=CCC=CCCCCC (stereo not drawn) [TGM2, 1,2,3-tri(2′-hydroxy-octadec-9′,12′-dienoyl)glycerol] | 61.7 ± 3 | 11 ± 2 | 3.83 | 3.94 | 4.24 | 4.17 | 4.27 | 4.13 | 4.11 | 5.70 | 4.51 | 4.60 | 3.88 | 4.25 | 4.38 | 4.51 | –
CCC=CCC=CCC=CCCCCCCC(O)C(=O)OCC(COC(=O)C(O)CCCCCCC=CCC=CCC=CCC)OC(=O)C(O)CCCCCCC=CCC=CCC=CCC (stereo not drawn) [TGM3A, 1,2,3-tri(2′-hydroxy-octadec-9′,12′,15′-trienoyl)glycerol] | 54.8 ± 4 | 10 ± 2 | 3.79 | 4.24 | 3.94 | 4.02 | 4.19 | 4.41 | 3.85 | 4.37 | 4.24 | 4.38 | 3.73 | 4.51 | 3.92 | 4.10 | –
CCCCCC=CCC=CCC=CCCCC(O)C(=O)OCC(COC(=O)C(O)CCCC=CCC=CCC=CCCCCC)OC(=O)C(O)CCCC=CCC=CCC=CCCCCC (stereo not drawn) [TGM3G, 1,2,3-tri(2′-hydroxy-octadec-6′,9′,12′-trienoyl)glycerol] | 64.1 ± 5 | 9 ± 4 | 4.12 | 4.38 | 3.73 | 3.76 | – | 3.81 | 3.91 | 4.41 | 4.34 | 3.73 | 4.23 | 4.55 | 4.03 | 4.09 | –
CCCCCC=CCC=CCC=CCC=CCCC(O)C(=O)OCC(COC(=O)C(O)CCC=CCC=CCC=CCC=CCCCCC)OC(=O)C(O)CCC=CCC=CCC=CCC=CCCCCC (stereo not drawn) [TGM4, 1,2,3-tri(2′-hydroxy-eicosa-5′,8′,11′,14′-tetraenoyl)glycerol] | 69.3 ± 3 | 4 ± 1 | 5.22 | 4.49 | 4.44 | 3.82 | 5.00 | 4.57 | 4.37 | 6.05 | 4.68 | 4.66 | 4.96 | 4.77 | 4.74 | 4.14 | –
CCC=CCC=CCC=CCC=CCC=CCCC(O)C(=O)OCC(COC(=O)C(O)CCC=CCC=CCC=CCC=CCC=CCC)OC(=O)C(O)CCC=CCC=CCC=CCC=CCC=CCC (stereo not drawn) [TGM5, 1,2,3-tri(2′-hydroxy-eicosa-5′,8′,11′,14′,17′-pentaenoyl)glycerol] | 56.2 ± 3 | 16 ± 3 | 4.72 | 4.89 | 4.74 | 5.05 | 4.85 | 4.54 | 4.64 | 5.40 | 4.59 | 4.28 | 5.10 | 4.37 | 4.68 | 4.77 | –
CCC=CCC=CCC=CCC=CCC=CCC=CCC(O)C(=O)OCC(COC(=O)C(O)CC=CCC=CCC=CCC=CCC=CCC=CCC)OC(=O)C(O)CC=CCC=CCC=CCC=CCC=CCC=CCC (stereo not drawn) [TGM6, 1,2,3-tri(2′-hydroxy-docosa-4′,7′,10′,13′,16′,19′-hexanoyl)glycerol] | 49.4 ± 4 | 5 ± 1 | 4.92 | 5.22 | 5.05 | 4.60 | 4.68 | 5.15 | 4.54 | 6.00 | 4.39 | 4.52 | 4.47 | 4.44 | 5.30 | 4.74 | –
